Columns and labels:
PPARγ:RXRα heterodimer = target: T1, PPARγ:RXRα heterodimer (Homo sapiens, UniProt P19793+P37231); assay: PPARγ:RXRα heterodimer formation HTRF assay, sGFP-RXRα LBD titrated against biotinylated PPARγ LBD coupled to Tb-SA; assay type: binding
T1 construct: His10-tag with TEV site (N, cleaved yes); made in house; host or cells: E. coli T7 express (co-expressed with GroEL/ES)
T1 sequence (P37231 234-505): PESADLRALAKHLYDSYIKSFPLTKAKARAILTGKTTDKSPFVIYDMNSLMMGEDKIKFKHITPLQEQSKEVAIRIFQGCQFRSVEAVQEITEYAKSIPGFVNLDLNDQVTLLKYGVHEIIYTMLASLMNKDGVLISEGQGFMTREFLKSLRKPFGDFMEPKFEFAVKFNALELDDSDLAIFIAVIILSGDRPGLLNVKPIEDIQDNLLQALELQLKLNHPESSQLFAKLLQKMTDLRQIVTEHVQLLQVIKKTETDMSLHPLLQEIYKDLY
T1 sequence (P19793 226-462): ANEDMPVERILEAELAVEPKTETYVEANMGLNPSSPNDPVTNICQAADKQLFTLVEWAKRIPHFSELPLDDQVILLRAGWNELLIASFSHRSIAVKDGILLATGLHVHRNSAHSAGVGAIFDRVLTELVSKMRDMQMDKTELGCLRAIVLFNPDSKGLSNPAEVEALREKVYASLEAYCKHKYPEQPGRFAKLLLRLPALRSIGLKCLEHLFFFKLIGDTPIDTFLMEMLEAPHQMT

PPARγ LBD = target: T2, PPARγ LBD (Homo sapiens, UniProt P37231); assay: Monomer cofactor recruitment HTRF assay: CBP-1 recruitment by isolated sGFP-PPARγ LBD; assay type: biochemical; settings: versus 1 μM Rosi
T2 construct: His10-tag with TEV site (N, cleaved yes); made in house; host or cells: E. coli T7 express (co-expressed with GroEL/ES)
T2 sequence (P37231 234-505): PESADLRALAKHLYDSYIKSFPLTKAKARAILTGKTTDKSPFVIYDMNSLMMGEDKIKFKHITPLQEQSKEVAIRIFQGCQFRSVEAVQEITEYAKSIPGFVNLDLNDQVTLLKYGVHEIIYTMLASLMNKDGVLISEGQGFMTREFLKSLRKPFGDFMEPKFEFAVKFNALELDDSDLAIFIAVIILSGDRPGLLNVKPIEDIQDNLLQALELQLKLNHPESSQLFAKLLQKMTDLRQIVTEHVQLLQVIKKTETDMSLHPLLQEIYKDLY

[1] = target: T3, PPARγ LBD in complex with RXRα LBD (Homo sapiens, UniProt P37231); assay: Heterodimer coactivator recruitment HTRF assay: CBP-1 recruitment by PPARγ LBD in complex with sGFP-RXRα LBD total mutant; assay type: biochemical
T3 construct: His10-tag with TEV site (N, cleaved yes); made in house; host or cells: E. coli T7 express (co-expressed with GroEL/ES)
T3 sequence (P37231 234-505): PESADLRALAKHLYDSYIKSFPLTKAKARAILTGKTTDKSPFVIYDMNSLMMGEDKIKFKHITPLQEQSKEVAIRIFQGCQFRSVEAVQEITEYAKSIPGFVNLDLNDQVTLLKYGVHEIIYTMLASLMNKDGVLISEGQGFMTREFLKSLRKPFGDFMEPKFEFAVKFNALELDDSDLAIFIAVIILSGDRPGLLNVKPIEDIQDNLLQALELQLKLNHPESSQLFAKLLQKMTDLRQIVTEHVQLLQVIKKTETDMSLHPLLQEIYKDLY
T3 sequence (P19793 226-462 V280T/K284E/V298T/F450Y/E453R partner limits assumed): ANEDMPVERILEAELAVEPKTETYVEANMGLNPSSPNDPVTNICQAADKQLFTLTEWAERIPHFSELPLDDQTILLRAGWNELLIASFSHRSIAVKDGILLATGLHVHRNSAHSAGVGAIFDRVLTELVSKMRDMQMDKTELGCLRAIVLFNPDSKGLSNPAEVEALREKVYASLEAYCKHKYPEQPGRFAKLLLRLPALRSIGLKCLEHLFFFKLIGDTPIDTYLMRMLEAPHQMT

PPARγ = settings: cited from earlier work
RXRα homodimer = target: T4, RXRα homodimer (Homo sapiens, UniProt P19793); assay: RXRα homodimer formation HTRF assay, sGFP-RXRα LBD titrated against biotinylated RXRα LBD (wildtype); assay type: binding; settings: 10 μM ligand compared with no ligand
T4 construct: His10-tag with TEV site (N, cleaved yes); made in house; host or cells: E. coli T7 express (co-expressed with GroEL/ES)
T4 sequence (P19793 226-462) 1: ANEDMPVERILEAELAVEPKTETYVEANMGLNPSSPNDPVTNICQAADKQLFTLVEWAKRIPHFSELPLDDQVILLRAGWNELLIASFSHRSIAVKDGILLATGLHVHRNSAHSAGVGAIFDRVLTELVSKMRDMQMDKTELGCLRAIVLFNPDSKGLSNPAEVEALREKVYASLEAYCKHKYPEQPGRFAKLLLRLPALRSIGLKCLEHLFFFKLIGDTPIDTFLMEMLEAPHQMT
T4 sequence (P19793 226-462) 2: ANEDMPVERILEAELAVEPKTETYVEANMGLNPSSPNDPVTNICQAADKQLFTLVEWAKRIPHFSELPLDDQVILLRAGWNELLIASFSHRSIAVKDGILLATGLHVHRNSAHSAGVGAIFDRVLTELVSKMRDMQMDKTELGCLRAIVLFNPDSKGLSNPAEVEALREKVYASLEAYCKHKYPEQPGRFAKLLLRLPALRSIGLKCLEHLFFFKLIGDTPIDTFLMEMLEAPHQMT

[2] = target: T3, PPARγ LBD in complex with RXRα LBD; settings: cited from earlier work
RXRα LBD wildtype = settings: cited from earlier work

O=C(Nc1ccccc1)c1cc([N+](=O)[O-])ccc1Cl [GW9662]
effect on PPARγ:RXRα heterodimer formation (PPARγ:RXRα heterodimer; 1 μM ligand compared with apo): did not affect heterodimer formation | Monomer recruitment, antagonist mode, Max inhibition (%) (PPARγ LBD): 62% | IC50 (PPARγ LBD; read-out: Monomer recruitment, antagonist mode, Potency (IC50)): 1.2 ± 0.07 µM | Dimer recruitment, antagonist mode, Max inhibition (%) ([1]; versus 1 μM Rosi): 52%

O=S(=O)(Nc1cc(Cl)c(Oc2cnc3ccccc3c2)c(Cl)c1)c1ccc(Cl)cc1Cl [INT131]
degree of activation of PPARγ compared with rosiglitazone (PPARγ): 30%

O=C(O)c1c(Sc2ccccc2)c2cc(Cl)ccc2n1Cc1ccccc1 [SR145]
degree of activation of PPARγ compared with rosiglitazone (PPARγ): ~ 35%

O=C(O)Cc1cc(I)c(Oc2cc(I)c(O)c(I)c2)c(I)c1 [TETRAC, 3,3',5,5'-tetraiodothyroacetic acid]
effect on RXRα homodimer formation (RXRα homodimer): slightly but significantly weakened | effect on PPARγ:RXRα heterodimer formation (PPARγ:RXRα heterodimer; 10 μM ligand compared with no ligand): strongly reduced the apparent Kd | reduction in the apparent Kd of dimer formation (PPARγ:RXRα heterodimer; 10 μM ligand in comparison with dimethyl sulfoxide control): 4 fold | enhancement of CBP-1 recruitment in comparison with 1 μM rosiglitazone [2]: approximately 50% | activation of RXRα in comparison with 1 μM SR11237 (RXRα LBD wildtype): below 10% | EC50 (RXRα LBD wildtype; read-out: EC50 of activation of RXRα): ~10 µM

GW1929
reduction of the apparent Kd of heterodimer formation (PPARγ:RXRα heterodimer; 1 μM ligand compared with apo): 3 fold | change of EC50 in the heterodimer setting in comparison with monomeric PPARγ LBD [1]: about 2 fold | Dimer recruitment, agonist mode, Efficacy (%) ([1]; normalized to rosiglitazone in the heterodimer): 118%
